Data on 7 molecules can be found in patent US20090226384A1, “ANTIMICROBIAL COMPOSITION CONTAINING TRICLOSAN AND AT LEAST ONE FUNCTIONALIZED HYDROCARBON” (priority 2006, published 2009).

Series [1] deals with Malassezia furfur (Pityrosporum ovale) MTCC 1374. Put plainly: MIC by macrobroth double dilution (NCCLS). The series is classed as cell-based. As to the method:
(§1) MIC value—is the lowest concentration of the antimicrobial agent required to inhibit growth of the microorganism was determined by the macrobroth double dilution method as per the NCCLS guidelines. (Reference Method for broth dilution antifungal susceptibility testing of Yeasts, Approved Standard; M27A, Vol. 17, No. 9, 1997 & Methods for dilution antimicrobial susceptibility tests for bacteria that grow aerobically; Approved Standard—5th Ed., M7-A5, Vol. 20, No. 2, 2000. National Committee for Clinical Laboratory Standards, Wayne, Pa.).
(§2) The test substances viz., TCS, CMB, ZPTO, KTZ, LGO, Citral, Nerol & Geraniol were prepared as stock solutions. Weighed 10 mg of TCS, CMB, ZPTO, & KTZ individually and dissolved in 1 ml of solvent (IN NaOH for TCS and DMSO for CMB, ZPTO & KTZ) and diluted in 19 ml SDB. The concentration of the prepared substances was 500 μg/ml. Similarly, weighed 400 mg of LGO, Citral, Nerol & Geraniol individually and dissolved in 2 ml DMSO and diluted in 18 ml SDB. The concentration of LGO, Citral, Nerol & Geraniol was 20000 μg/ml. All test solutions were prepared afresh prior to determination of MIC.
(§3) S. aureus, S. epidermidis and B. subtilis were cultured in Mueller Hinton Agar (MHA) for 24 hrs. at 37° C. 1-2 colonies were suspended in MHB overnight at 37° C. C. albicans and A. niger were cultured in Sabauraud Dextrose Agar (SDA) at 28° C. for 24 hrs and 4 days respectively. 1-2 colonies of C. albicans was suspended in SDB and cultured overnight at 28° C. Aspergillus spores were washed with physiological saline prior to testing. M. furfur was cultured in SDA with 1% Tween 80 for 72 hrs at 32° C. Colonies were suspended in SDB with 1% Tween 80 and incubated at 32° C. M. restricta was cultured in Dixon agar at 32° C. for 3-4 days. Colonies were suspended in saline prior to testing.
(§4) Colonies suspended in broth/saline were determined for counts photometrically. (Hammer K A, et al.: Antimicrob. Agents Chemo., (2000), 44(2): 467-469). The organisms were diluted such that the final concentration was 1×10^6 cfu/ml for S. aureus, S. epidermidis and B. subtilis, 1×10^5 cfu/ml for C. albicans and A. niger and 2×10^3 cfu/ml for M. furfur and M. restricta.
(§5) Double fold serial dilutions were done with the test substance, such that the final concentration of TCS was between 250 μg/ml and 0.03 μg/ml; and that of functionalized hydrocarbon (Citral, Nerol, Geraniol) and/or mixtures containing such functionalized hydrocarbons (LGO) was between 10000 μg/ml-19.53 μg/ml. Inoculated organisms were added to the tubes and required controls were also set up in the assay to rule out contamination/inactivation of the test substance.
(§6) Tubes were incubated for 24 hrs at 37° C. for S. aureus, S. epidermidis and B. subtilis; at 28° C. for C. albicans; for 48 hrs at 28° C. for A. niger, 32° C. for M, furfur and M. restricta. At the end of the incubation period, 10 μl aliquots from each tube were spot inoculated onto Nutrient agar (for bacteria), SDA (for C. albicans & A. niger), SDA with 1% Tween 80 for M. furfur and Dixon Agar for M. restricta. The plates were incubated for 24 hrs at 37° C. (S. aureus, S. epidermidis & B. subtilis), at 28° C. (C. albicans); 3-4 days at 28° C. (A. niger), 48-72 hrs at 32° C. (M. furfur & M. restricta) when the colonies became visible.
(§7) At the end of the incubation period, plates were checked for growth of colonies.
(§8) 140 mg of the sample was dissolved in 2 ml of Dimethyl Sulfoxide (DMSO) and further diluted in 18 ml of SDB. The final concentration of antimicrobial and functionalized hydrocarbon and/or mixtures containing such functionalized hydrocarbons in the mixture was 333.33 μg/ml and 6666.66 μg/ml respectively.
(§9) 205 mg of the sample was dissolved in 2 ml of Dimethyl Sulfoxide (DMSO) and further diluted in 18 ml of SDB. The final concentration of antimicrobial and functionalized hydrocarbon and/or mixtures containing such functionalized hydrocarbons in the mixture was 250 μg/ml and 10000 μg/ml respectively.

Series [2] relates to Aspergillus niger MTCC 1344. The series can be described thus: MIC by macrobroth double dilution (NCCLS). The series is classed as cell-based. As to the method: as §1, §2, §3, §4, §5, §6, §7, §8, §9
The test system of series [3] is Bacillus subtilis MTCC 441. The series can be described thus: MIC by macrobroth double dilution (NCCLS). In kind it is cell-based. As to the method: as §1, §2, §3, §4, §5, §6, §7, §8, §9
The subject of series [4] is Candida albicans MTCC 3017. The series can be described thus: MIC by macrobroth double dilution (NCCLS). In kind it is cell-based. As to the method:
as §1, §2, §3, §4, §5, §6, §7, §8, §9

Series [5] has as its system Malassezia restricta CBS 7877. Put plainly: MIC by macrobroth double dilution (NCCLS). The series is classed as cell-based. As to the method: as §1, §2, §3, §4, §5, §6, §7, §8, §9
Series [6] deals with Staphylococcus aureus MTCC 96. The series can be described thus: MIC by macrobroth double dilution (NCCLS). In kind it is cell-based. As to the method:
as §1, §2, §3, §4, §5, §6, §7, §8, §9

The test system of series [7] is Staphylococcus epidermidis MTCC 435. The series can be described thus: MIC by macrobroth double dilution (NCCLS). The series is classed as cell-based. As to the method:
as §1, §2, §3, §4, §5, §6, §7, §8, §9

The conditions of series [8]: Bhargava & Leonard 1996; cited from earlier work.
The mark [9] stands for this setting: Malassezia furfur, MTCC1374, individual ingredient, M. furfur, read-out: MIC.
Setting [10] is: MTCC1344, individual ingredient, A. niger, read-out: MIC.
Where [11] appears, read: MTCC441, individual ingredient, B. subtilis, read-out: MIC.
The mark [12] stands for this setting: MTCC3017, individual ingredient, C. albicans, read-out: MIC.
[13] abbreviates: CBS7877, individual ingredient, M. restricta, read-out: MIC.
The mark [14] stands for this setting: MTCC96, individual ingredient, S. aureus, read-out: MIC.
Where [15] appears, read: MTCC435, individual ingredient, S. epidermidis, read-out: MIC.

Values after ≈ are worked out from the molar mass of the structure shown. Like-named read-outs stand apart in the source and are kept apart here.

Consider `CC(C)(C)C(=O)C(Oc1ccc(Cl)cc1)n1ccnc1` (stereo not drawn) [CMB, Climbazole], for which, in series [1] (setting [9]), the MIC – broadly, the least concentration at which growth counts as inhibited – amounted to 1.95 µg/mL (≈ 6.66 µM).
On to `CC(C)=CCCC(C)=CC=O` [Citral], for which the MIC turned out to be 625 µg/mL (≈ 4110 µM) in series [2] (setting [10]); 5000 µg/mL (≈ 32800 µM) in series [3] (setting [11]); 156 µg/mL (≈ 1030 µM) in series [4] (setting [12]); 39.1 µg/mL (≈ 257 µM) in series [1] (setting [9]); 156 µg/mL (≈ 1030 µM) in series [5] (setting [13]); 312 µg/mL (≈ 2050 µM) in series [6] (setting [14]). In series [7] (setting [15]), the MIC amounted to 312 µg/mL (≈ 2050 µM).
For `CC(C)=CCC/C(C)=C/CO` [Geraniol], the MIC is 5000 µg/mL (≈ 32400 µM) in series [2] (setting [10]); 2500 µg/mL (≈ 16200 µM) in series [3] (setting [11]); 1250 µg/mL (≈ 8100 µM) in series [4] (setting [12]); 156 µg/mL (≈ 1010 µM) in series [1] (setting [9]); 312 µg/mL (≈ 2030 µM) in series [5] (setting [13]); 5000 µg/mL (≈ 32400 µM) in series [6] (setting [14]). Also, the MIC in series [7] (setting [15]) came to 1250 µg/mL (≈ 8100 µM).
For `CC(=O)N1CCN(c2ccc(OCC3COC(Cn4ccnc4)(c4ccc(Cl)cc4Cl)O3)cc2)CC1` (stereo not drawn) [KTZ, Ketoconazole], the MIC in series [1] (setting [9]) was 0.48 µg/mL (≈ 0.903 µM).
Take `CC(C)=CCC/C(C)=C\CO` [Nerol]: the MIC in series [2] (setting [10]) turned out to be 1250 µg/mL (≈ 8100 µM); in series [3] (setting [11]), 10000 µg/mL (≈ 64800 µM); in series [4] (setting [12]), 1250 µg/mL (≈ 8100 µM); in series [1] (setting [9]), 156 µg/mL (≈ 1010 µM); in series [5] (setting [13]), 312 µg/mL (≈ 2030 µM); in series [6] (setting [14]), 5000 µg/mL (≈ 32400 µM). Also, the MIC in series [7] (setting [15]) amounted to 1250 µg/mL (≈ 8100 µM).
Consider `Oc1cc(Cl)ccc1Oc1ccc(Cl)cc1Cl` [TCS, 2,4,4′-trichloro-2′-hydroxydiphenyl ether, reference compound], for which the MIC in series [2] (MTCC1344) worked out at 31.2 µg/mL (≈ 108 µM); in series [3] (MTCC441), 15.6 µg/mL (≈ 53.9 µM); in series [4] (MTCC3017), 15.6 µg/mL (≈ 53.9 µM); in series [1] (Malassezia furfur, MTCC1374) it was 62.5 µg/mL (≈ 216 µM); in series [5] (CBS7877), 62.5 µg/mL (≈ 216 µM); in series [6] (MTCC96), 1.95 µg/mL (≈ 6.73 µM). This molecule also showed a minimum inhibitory concentration (MIC) in series [7] (MTCC435) of 7.81 µg/mL (≈ 27 µM). Besides, the “carcinogenic, mutagenic or teratogenic effects” value in series [8] is given as “not found to have any carcinogenic, mutagenic or teratogenic effects”. Also, the “toxicity to humans and other mammals” value in series [8] is recorded as “relatively non-toxic”.
Take Zinc Pyrithione [ZPTO]: the MIC in series [1] (individual ingredient, M. furfur) worked out at 3.9 µg/mL.
